# Source: patent US12319675B2 (Artax Biopharma Inc., priority 2018, dated 2025)
# Read-outs that look alike come from different tables or passages of the source.
# Experiments:
# [1] = biological target: Nck SH3 domain interaction with the proline rich sequence of TCR subunit CD3ε (Homo sapiens, UniProt P16333); experiment: Competitive binding, biosensor with Interferometric Optical Detection Method (IODM); details: ratio of 1:1 between Nck SH3 domain and inhibitors; biotinylated CD3ε peptide on sensing surface
# Protocol: Inhibition of Nck SH3 domain interaction with the proline rich sequence of TCR subunit CD3ε was measured by optical read-out of a biosensor based on the Interferometric Optical Detection Method (IODM), using established methods (WO 2010/026269; WO 2014/020159; Laguna, M. et al., Sensors, 2015, 15(8):19819-29; and Holgado, M. et al., Sensors, 2014, 14(2): 3675-89).
# Briefly, a Biophotonic Cell (BICELL) based on Fabry-Perot interferometers was used as the photonic transducer. The BICELL was fabricated using SU8 in cyclopentanone according to known methods (e.g., Laguna, M. F. et al., Sensors, 2014, 14(4): 6695-6700). Cured film was then treated with 95% sulfuric acid for 10 seconds. Streptavidin was then immobilized on the sensing surface in phosphate buffered saline (PBS; pH 7.4) over 20 min at 37° C. followed by blocking of the surface with 5% skin milk in PBS (pH 7.4). Biotinylated CD3ε peptide (SEQ ID NO: 001) in PBS (pH 7.4) was incubated with the streptavidin coated film to biofunctionalize the sensing surface (20 min at 37° C.).
# Competitive binding assays were performed to determine the affinity reaction of inhibitors. The screening was carried out using a ratio of 1:1 between Nck SH3 domain and inhibitors. The optical readout of the biosensor was accomplished by a Fourier transform visible-infrared (FT-VIS-IR) spectrometer. Competitive binding results are shown in Table 3 for selected compounds of the invention. The compound numbers correspond to the compound numbers in Table 1. Compounds having a designation of “A” provide an Increased Relative Optical Power (ΔIROP) of less than or equal to thirty percent (≤30%); compounds having a designation of “B” provide a ΔIROP of between thirty and fifty percent (>30% to ≤50%); compounds having a designation of “C” provide an ΔIROP of between fifty and seventy percent (>50% to ≤70%); and compounds having a designation of “D” provide a ΔIROP of greater than seventy percent (>70%).
# [2] = tested on: CD3 mediated phosphorylation of ZAP70 in Jurkat cells; experiment: CD3 mediated phosphorylation of ZAP70 in Jurkat cells (HTRF); format: cell-based; details: Jurkat cells stimulated with 20 μg/mL anti-CD3 antibody; for IC50: read-out: pZAP70 Inhibition IC50; for Emax: read-out: pZAP70 Inhibition - Maximum Percent Inhibition (% Inhibition)
# Protocol: Inhibition of CD3 mediated phosphorylation of ZAP70 in Jurkat cells was measured by a cellular based Homogeneous Time-Resolved Fluorescence (HTRF) assay utilizing a Total ZAP-70 HTRF kit.
# Briefly, Jurkat cells (˜1.3×10^6 cells/mL) were harvested on the day of experimentation. Cells were washed with PBS and resuspended in Assay Buffer (RPMI 1640 media plus 10% FBS) and counted.
# Jurkat cells were seeded in Assay media at a total volume of 4 μL/well (40K cells/well) in a 384-low volume white flat bottom plate. The cells were then incubated at 37° C./5% CO2 for 30 minutes. The cells were then treated in duplicate with test compounds (3×) and reference compounds (3×) in a total volume of 4 μL, respectively. A compound dilution scheme is exemplified in FIG. 1.
# The plate was then transferred to an incubator maintained at 37° C./5% CO2 for 2 minutes. Following incubation, cells were stimulated with 20 μg/mL of anti-CD3 antibody (1 mg/mL stock) and assay media was used to bring the total well volume 4 μL/well. The plate was then transferred to the incubator maintained at 37° C./5% CO2 for 2.5 minutes. Following incubation, 4 μL of lysis buffer (4×) provided in the kit was added to each well. The plate was then incubated at RT for 1 hour with gentle shaking. Following incubation, 4 μL of detection mix was added to each well and the plate was sealed with a plate sealer and left overnight at RT in the dark.
# The Envision reader was set-up for Eu^3+ cryptate and fluorescence emission was read at two different wavelengths (620 nm and 665 nm). • Excitation filter: UV2(TRF) 320 nm • Emission filter: 665 nm • 2nd Emission filter: Europium 615 nm • Measurement height (mm): 6.5 • Excitation light (%): 100 • Delay (μs): 50 • Window time (μs): 400 • Time between flashes (μs): 2000 • Number of flashes: 100 • Number of flashes for 2nd detector: 100
# The data is represented by the signal form the two wavelengths:
# The ratio of the signal is calculated for each individual well:
# The data was plotted using Graph Pad Prism. The significance between untreated vs. treated groups was assessed by One-way ANOVA and Bonferroni posttest comparing all columns in the graph.
# ZAP70 IC50 results are shown in Table 6 for select compounds of the invention. The compound numbers correspond to the compound numbers in Table 1. […] “ND” indicates not determined.
# ZAP70 percent maximum inhibition results are shown in Table 7 for select compounds of the invention. The compound numbers correspond to the compound numbers in Table 1.
# [3] = Microsomal stability assay, human; format: in vitro ADME; details: human microsomes; for half-life: read-out: Microsomal Stability (T1/2 min) Human
# Protocol: (§1) Microsomal stability assays were performed using mouse, rat, and human […] according to methods well-known in the art. Microsomal stability results are shown in Table 2 for selected compounds of the invention. The compound numbers correspond to the compound numbers in Table 1. […] “N/A” indicates not assayed.
# [4] = Microsomal stability assay, rat; format: in vitro ADME; details: rat microsomes; for half-life: read-out: Microsomal Stability (T1/2 min) Rat
# Protocol: as §1
# [5] = Microsomal stability assay, mouse; format: in vitro ADME; details: mouse microsomes; for half-life: read-out: Microsomal Stability (T1/2 min) Mouse
# Protocol: as §1
# [6] = Homo sapiens, maximum inhibition
IC50 [2] [nM],half-life [3] [min],half-life [4] [min],half-life [5] [min],IC50 ([2]; Homo sapiens) [nM],Molecule,ΔIROP (Increased Relative Optical Power) [1],pZAP70 Inhibition - Maximum Percent Inhibition (% Inhibition) ([2]; maximum inhibition),Microsomal Stability (T1/2 min) Human ([3]; half-life),Microsomal Stability (T1/2 min) Rat ([4]; half-life),Microsomal Stability (T1/2 min) Mouse ([5]; half-life),"Emax [2, 6] [%]"
< 1,–,–,–,–,4-((4-(4-fluorophenyl)-6-(trifluoromethoxy)-2H-chromen-3-yl)methyl)morpholine [Compound I-16],B (a ΔIROP of between thirty and fifty percent (>30% to ≤50%)),C (a percent maximum inhibition of between forty and greater than thirty percent (40%≥x>30%)),A (a half-life of greater than thirty (>30) minutes),C (a half-life of less than ten (<10) minutes),B (a half-life of between ten (10) and thirty (30) minutes),–
–,10 to 30,< 10,< 10,–,CN1CCN(C(=O)C2=C(c3ccc(F)cc3)c3cc(Cl)ccc3OC2)CC1 [Compound I-25],B (a ΔIROP of between thirty and fifty percent (>30% to ≤50%)),–,–,–,–,–
–,10 to 30,< 10,10 to 30,–,"N#CCCOc1ccc2c(c1)C(c1ccc(F)cc1)=C(CN1CCCC1)CO2 [Compound I-32, 3-((4-(4-fluorophenyl)-3-(pyrrolidin-1-ylmethyl)-2H-chromen-6-yl)oxy)propanenitrile]",B (a ΔIROP of between thirty and fifty percent (>30% to ≤50%)),–,–,–,–,–
–,10 to 30,< 10,< 10,< 1,CC(C)Oc1ccc2c(c1)C(c1ccc(F)cc1)=C(CN1CCCC1)CO2 [Compound I-14],C (an ΔIROP of between fifty and seventy percent (>50% to ≤70%)),–,–,–,–,30 to 40
–,< 10,10 to 30,< 10,–,COc1ccc2c(c1)C(c1ccc(C(F)(F)F)cc1)=C(C(=O)N1CCN(C)CC1)CO2 [Compound I-29],B (a ΔIROP of between thirty and fifty percent (>30% to ≤50%)),–,–,–,–,–
–,10 to 30,< 10,< 10,< 1,CC(C)c1ccc2c(c1)C(c1ccc(F)cc1)=C(CN1CCCC1)CO2 [Compound I-15],C (an ΔIROP of between fifty and seventy percent (>50% to ≤70%)),–,–,–,–,30 to 40
–,10 to 30,< 10,< 10,1 to 10,[2H]C([2H])([2H])Oc1ccc2c(c1)C(c1ccc(F)cc1)=C(CN1CCCC1)CO2 [Compound I-13],A (an Increased Relative Optical Power (ΔIROP) of less than or equal to thirty percent (≤30%)),–,–,–,–,40 to 50
–,10 to 30,< 10,< 10,–,COc1ccc2c(c1)C(c1cccc(F)c1)=C(C(=O)N1CCN(C)CC1)CO2 [Compound I-31],C (an ΔIROP of between fifty and seventy percent (>50% to ≤70%)),–,–,–,–,–
–,> 30,10 to 30,> 30,–,"Fc1ccc(C2=C(CN3CCCC3)COc3ccc(C(F)(F)F)cc32)cc1 [Compound I-17, 1-((4-(4-fluorophenyl)-6-(trifluoromethyl)-2H-chromen-3-yl)methyl)pyrrolidine]",C (an ΔIROP of between fifty and seventy percent (>50% to ≤70%)),–,–,–,–,–
–,10 to 30,< 10,< 10,–,"CN1CCN(C(=O)C2=C(c3ccc(F)cc3)c3cc(C(F)(F)F)ccc3OC2)CC1 [Compound I-26, (4-(4-fluorophenyl)-6-(trifluoromethyl)-2H-chromen-3-yl)(4-methylpiperazin-1-yl)methanone]",C (an ΔIROP of between fifty and seventy percent (>50% to ≤70%)),–,–,–,–,–
–,< 10,< 10,< 10,–,COc1ccc2c(c1)C(c1ccc(Cl)cc1)=C(C(=O)N1CCN(C)CC1)CO2 [Compound I-28],D (a ΔIROP of greater than seventy percent (>70%)),–,–,–,–,–

# More lines, now with the values behind:
Molecule,IC50 [2] [nM],half-life [3] [min],half-life [4] [min],half-life [5] [min],IC50 ([2]; Homo sapiens) [nM],ΔIROP (Increased Relative Optical Power) [1],pZAP70 Inhibition - Maximum Percent Inhibition (% Inhibition) ([2]; maximum inhibition),Microsomal Stability (T1/2 min) Human ([3]; half-life),Microsomal Stability (T1/2 min) Rat ([4]; half-life),Microsomal Stability (T1/2 min) Mouse ([5]; half-life),"Emax [2, 6] [%]"
CN1CCN(C(=O)C2=C(c3ccc(F)cc3)c3cc(OC(F)(F)F)ccc3OC2)CC1 [Compound I-9],–,10 to 30,< 10,10 to 30,–,D (a ΔIROP of greater than seventy percent (>70%)),–,–,–,–,–
CCNC(=O)C1=C(c2ccc(F)cc2)c2cc(OC(F)F)ccc2OC1 [Compound I-2],–,10 to 30,< 10,< 10,–,C (an ΔIROP of between fifty and seventy percent (>50% to ≤70%)),–,–,–,–,–
Fc1ccc(C2=C(CN3CCOCC3)COc3ccc(OC(F)F)cc32)cc1 [Compound I-5],–,10 to 30,10 to 30,10 to 30,–,B (a ΔIROP of between thirty and fifty percent (>30% to ≤50%)),–,–,–,–,–
O=C(C1=C(c2ccc(F)cc2)c2cc(OC(F)F)ccc2OC1)N1CCCC1 [Compound I-1],–,< 10,< 10,< 10,–,C (an ΔIROP of between fifty and seventy percent (>50% to ≤70%)),–,–,–,–,–
CN(C)CCNC(=O)C1=C(c2ccc(F)cc2)c2cc(OC(F)F)ccc2OC1 [Compound I-4],–,> 30,10 to 30,10 to 30,–,B (a ΔIROP of between thirty and fifty percent (>30% to ≤50%)),–,–,–,–,–
CCNC(=O)C1=C(c2ccc(F)cc2)c2cc(OC(F)(F)F)ccc2OC1 [Compound I-8],–,> 30,< 10,< 10,–,B (a ΔIROP of between thirty and fifty percent (>30% to ≤50%)),–,–,–,–,–
CCNCC1=C(c2ccc(F)cc2)c2cc(OC(F)F)ccc2OC1 [Compound I-6],–,> 30,< 10,> 30,–,C (an ΔIROP of between fifty and seventy percent (>50% to ≤70%)),–,–,–,–,–
"CN(C)CCNC(=O)C1=C(c2ccc(F)cc2)c2cc(OC(F)(F)F)ccc2OC1 [Compound I-10, N-(2-(dimethylamino)ethyl)-4-(4-fluorophenyl)-6-(trifluoromethoxy)-2H-chromene-3-carboxamide]",–,> 30,> 30,> 30,–,A (an Increased Relative Optical Power (ΔIROP) of less than or equal to thirty percent (≤30%)),–,–,–,–,–
